Data taken from patent US7928189B2, “PCSK9 polypeptide fragment” (Ottawa Health Research Institute, priority 2008, dated 2011).
Where no end group is shown, it is not given here. [ ]: non-standard residue; d: D form. pS = N[C@@H](COP(=O)(O)O)C(=O)O

What was measured:
Type in all cases: cell-based, human
[1] = system: LDLR levels in Huh7 cells; test: Kinase inhibitor incubation, LDLR immunoblot of total cell lysates; conditions: 16 hrs, SSP at 200 nm, GK at 25 μg/ml, relative to untreated cells
Procedure: The level of LDLR was quantified in Huh7 cells by immunoblotting of total cell lysates (50 μg) in response to overnight incubation without (control) or with two different kinase inhibitors, staurosporine (SSP at 200 nm) or GK (genistein at 25 μg/ml) (FIG. 11A). Huh7 cells were seeded onto 6 well plates and grown to 80% confluency in DMEM (Dulbecco's Modified Eagle's Medium)+10% (v/v) FBS (fetal bovine serum)+280 μg/ml GTM (gentamycin). Cells were then incubated for 16 hrs in the same media in the presence or absence of kinase inhibitor; staurosporine (SSP at 200 nm) or GK (genistein at 25 μg/ml). Cells were lysed in 1XRIPA buffer [50 mM Tris (pH 7.6), 150 mM NaCl, 1% (v/v) NP-40, 0.5% (w/v) DOC, 0.1% (w/v) SDS] in the presence of inhibitors, as above. Lysates were rotated at 4° C. for 30 min, centrifuged at 13,000×g for 3 min and supernatants collected. Protein concentrations in total cell lysates were determined by the Bradford dye-binding method using Bio-Rad's Protein Assay Kit (Bio-Rad; Mississauga, ON, CAN). LDLR levels were analyzed by immunoblotting following a standard protocol. The protein signals were quantified by densitometry using Syngene Chemigenius 2XE imager and Gene Tools software. […]

[2] = system: PCSK9 phosphorylation in Huh7 cells; test: Kinase inhibitor incubation, radiolabelling and immunoprecipitation of secreted PCSK9; conditions: 32P-orthophosphate, 16 hrs, SSP at 200 nm, GK at 25 μg/ml
Procedure: Untransfected and transfected HepG2 and Huh7 cells were grown to confluence as above. Prior to radiolabeling cells were incubated for 4 hours in serum-free DMEM without sodium phosphate (Invitrogen) or methionine/cysteine (Met/Cys) free DMEM (Invitrogen) and then incubated for 16 hrs in the same media in the presence of either 250 μCi 32P-orthophosphate or 250 μCi 35S-Met/Cys. Media and TCLs were harvested and immunoprecipitated as described above. Samples were fractionated through a 12% SDSPAGE. Following electrophoresis gels were dried and visualized by phosphoimaging using a Typhoon Imager. Signals were quantified using ImageQuant 5.2 software using the integer integration method when comparing samples within a lane and, for samples between lanes, by volume quantitation as recommended. The level of LDLR was quantified in Huh7 cells by immunoblotting of total cell lysates (50 μg) in response to overnight incubation without (control) or with two different kinase inhibitors, staurosporine (SSP at 200 nm) or GK (genistein at 25 μg/ml) (FIG. 11A). […] Protein concentrations in total cell lysates were determined by the Bradford dye-binding method using Bio-Rad's Protein Assay Kit (Bio-Rad; Mississauga, ON, CAN). LDLR levels were analyzed by immunoblotting following a standard protocol. […]

[3] = system: LDLR levels in Huh7 cells; test: Peptides added to cultured cells, LDLR immunoblot of total cell lysates; conditions: 24 hours, media minus FBS
Procedure: Cells were seeded onto 6 well plates and grown to ˜80% confluency. All cell lines were grown in DMEM (Dulbecco's Modified Eagle's Medium)+10% (v/v) FBS (fetal bovine serum)+280 μg/ml GTM (gentamycin). In this case, cells were incubated overnight in the same media in the absence of FBS for 12 hours. Peptides are then added to media minus FBS, and at indicated concentrations and this media+peptide is added onto cells cultured for additional 24 hours. Following this incubation we collected the spent media and total cell lysates (TCL) in the presence of protease inhibitor cocktail. 50 μg of proteins from TCL were then fractionated by SDS-PAGE, transferred to nitrocellulose and immunoblotted following standard protocols with a commercial anti LDLR antibody. The protein signals for LDLR were quantified by densitometry using Syngene Chemigenius 2XE imager and Gene Tools software. All values are made relative to values from untreated control cells set as 1 and presented as mean±SEM ([…]).

[4] = system: LDLR levels in Huh7 cells; test: Overexpression of PCSK9 phosphorylation mutants, LDLR immunoblot; conditions: 72 hours post-transfection, in comparison to wildtype PCSK9
Procedure: Huh7 cells were untransfected (C-control) or transiently transfected with cDNAs encoding either wild-type (WT) PCSK9, or the naturally-occurring propeptide mutants shown to decrease PCSK9 phosphorylation; A53V PCSK9 and R46L PCSK9 or the engineered propeptide mutants that prevent phosphorylation; S47A PCSK9, E49A PCAK9 and E49D PCSK9 or the engineered C-terminal mutants that prevent phosphorylation; S688A and E690A. 72 hours post-transfection spent media and total cell lysates were collected as described herein. 50 μg of total cell lysates were fractionated through a 7% NuPAGE Tris-Acetate Gel (Invitrogen) and immunoblotted for LDLR as described below. The protein signals were quantified by densitometry using Syngene Chemigenius 2XE imager and Gene Tools software. All values were made relative to values from control cells set as 1 and presented as mean±SEM (n=3). Data were analyzed using GraphPad Prism 5.0 statistical software with significance defined as p<0.05.

| Molecule | effect on LDLR degradation in comparison to control ([3]; peptide 10 μM) | effect on LDLR degradation in comparison to control ([3]; peptide 100 μM) | other results |
| --- | --- | --- | --- |
| O=c1c(-c2ccc(O)cc2)coc2cc(O)cc(O)c12 [GK, genistein] |  |  | level of LDLR [1]: not; phosphorylation of PCSK9 and its prodomain [2]: does not affect PCSK9 phosphorylation |
| CN[C@@H]1C[C@H]2O[C@@](C)([C@@H]1OC)n1c3ccccc3c3c4c(c5c6ccccc6n2c5c31)C(=O)NC4 [SSP, staurosporine] |  |  | level of LDLR [1]: increased levels of LDLR; phosphorylation of PCSK9 and its prodomain [2]: neither PCSK9 nor its prodomain are phosphorylated |
| RSRHLAQAS(phos)QELQ (RSRHLAQA[pS]QELQ) [SEQ ID NO:5, phosphorylated PCSK9 polypeptide fragment comprising phosphoSerine 688] | protect LDLR from degradation | protect LDLR from degradation |  |
| RSRHLAQASQELQ (homo sapiens) [SEQ ID NO:4, unphosphorylated PCSK9 polypeptide fragment comprising Serine 688] | protect LDLR from degradation |  |  |
| S47E: engineered propeptide mutant that mimics PCSK9 propeptide phosphorylation |  |  | level of LDLR / LDLR degradation [4]: increased LDLR degradation |
| VLALRS(phos)EEDGLAEAP (VLALR[pS]EEDGLAEAP) [SEQ ID NO:3, phosphorylated PCSK9 polypeptide fragment comprising phosphoSerine 47] | accentuate LDLR degradation | accentuate LDLR degradation |  |
| VLALRSEEDGLAEAP (homo sapiens) [SEQ ID NO:2, unphosphorylated PCSK9 polypeptide fragment comprising Serine 47] | protect LDLR from degradation | protect LDLR from degradation |  |
